In PubChem BioAssay (NCI):
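These data come from cells grown in 96-well plates and exposed to compound for 48 hours at five concentrations. TGI: concentration producing complete growth inhibition.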 Where a SMILES comes first, the peptide text is derived from it. [ ]: non-standard residue; d: D form. The star is where a group is joined. ξ: configuration not given here. ξD = NC(CC(=O)O)C(=O)O; Ac3c = NC1(C(=O)O)CC1; Boc = CC(C)(C)OC(=O)*; OBn = c1ccc(CO*)cc1

Legend:
Experiment in all cases: inhibition of tumour cell growth, NCI panel, 48 h
[1] = test system: NCI-H522 lung
[2] = test system: SK-MEL-28 melanoma
[3] = test system: RPMI-8226 leukemia
[4] = test system: CCRF-CEM leukemia
[5] = test system: MOLT-4 leukemia
[6] = test system: HL-60(TB) leukemia
[7] = test system: UACC-62 melanoma
[8] = test system: T-47D breast
[9] = test system: SN12C renal
[10] = test system: RXF 393 renal

Compound | TGI [1] [µM] | TGI [2] [µM] | TGI [3] [µM] | TGI [4] [µM] | TGI [5] [µM] | TGI [6] [µM] | TGI [7] [µM] | TGI [8] [µM] | TGI [9] [µM] | TGI [10] [µM]
CCN(CC)C(=S)N/N=C/c1ccccn1 | 1.53 | > 100 | > 100 | > 100 | > 100 | 4.09 | 0.392 | > 100 | – | –
OCC(O)C1OC2CC1Nc1ccccc1N2 (stereo not drawn) | > 100 | > 100 | > 100 | > 100 | > 100 | > 100 | > 100 | > 100 | > 100 | –
CC(=O)NC1C(OCc2ccccc2)OC(CO)C(O)C1OCC(=O)NC(C)C(=O)NC(CCC(=O)NCCCCCNc1c2ccccc2nc2cccc([N+](=O)[O-])c12)C(N)=O (stereo not drawn) | 0.0045 | < 0.0001 | < 0.0001 | – | – | 0.0455 | – | – | < 0.0001 | –
NC(c1ccccc1)(C(F)(F)F)P1(=O)OC(=O)c2ccccc2O1 (stereo not drawn) | – | > 100 | > 100 | – | > 100 | – | > 100 | > 100 | > 100 | > 100
COC(=O)C(Cc1c[nH]c2ccccc12)NC(=O)C(Cc1c[nH]c2ccccc12)NC(=O)C(Cc1c[nH]c2ccccc12)NC(=O)C(Cc1c[nH]c2ccccc12)NC(=O)OC(C)(C)C (stereo not drawn) (Boc-WWWW-OMe; configuration not given here) | > 100 | > 100 | 26 | 34.3 | 20.7 | 43.4 | 38.4 | > 100 | > 100 | –
O=C(NC1(C(=O)NNc2nnc(-c3ccccc3)c(-c3ccccc3)n2)C(c2ccccc2)C(c2ccccc2)=NN1c1ccccc1)c1ccccc1 (stereo not drawn) | > 100 | – | – | – | > 100 | > 100 | > 100 | > 100 | – | > 100
COC(=O)C1(NC(=O)C(CC(=O)OCc2ccccc2)NC(=O)OC(C)(C)C)CC1 (stereo not drawn) (Boc-[ξD](OBn)-[Ac3c]-OMe) | > 100 | > 100 | > 100 | > 100 | > 100 | – | 91.7 | > 100 | > 100 | > 100
O=c1[nH]c(=O)n(COCc2ccccc2)c2ccc([N+](=O)[O-])cc12 | – | > 100 | – | > 100 | > 100 | > 100 | > 100 | – | > 100 | > 100
O=C(CN1CCCCC1)c1ccc2c(c1)Sc1ccccc1O2 | – | 37.8 | > 100 | 34.4 | > 100 | 58.1 | 25.7 | 47.9 | 42.7 | 21
[N-]=[N+]=NC1CC(n2cc(COCC(F)(F)F)c(=O)[nH]c2=O)OC1CO (stereo not drawn) | > 100 | > 100 | > 100 | > 100 | > 100 | > 100 | > 100 | – | > 100 | > 100
CC1(C)[C@@H](Cn2cnc3c(=O)[nH]c(N)nc32)CC[C@@]1(C)CO | – | > 100 | > 100 | > 100 | > 100 | – | > 100 | > 100 | > 100 | > 100
CC(C)(C)OC(=O)NC(Cc1ccc(O)cn1)C(N)=O (stereo not drawn) | > 100 | > 100 | > 100 | – | > 100 | > 100 | – | – | > 100 | > 100
